Biological target: T1, human NaV 1.8 (Homo sapiens, UniProt Q9Y5Y9)
T1 construct: expressed in transfected cells; host or cells: HEK (recombinant cell line)
Assay: Automated whole-cell patch clamp (Qube384) voltage-clamp recordings of sodium currents in HEK-NaV1.8 cell line
Assay type: cell-based
Conditions: read-out: Potency category (human NaV 1.8 IC50)
Protocol: Electrophysiology: Voltage-Clamp Recordings
The following NaV1.8 recombinant cell line was used for recordings: HEK-NaV1.8 (NM_006514.1) with b3 (NM_018400.3).
Sodium currents were measured using the patch clamp technique in the whole-cell configuration using the Qube384 (Sophion A/S, Copenhagen, Denmark) automated voltage clamp platform. “Multi hole” plates were used for the cell line expressing NaV1.8 while “single hole” plates were used for the recombinant cell lines expressing the other subtypes. Appropriate filters (for minimum seal resistance and minimum current size) and series resistance compensation (for high quality sodium channel recordings) were applied. Data was collected at ambient room temperature or 19° C.
The recording extracellular solution contained (in mM): NaCl 145 mM, KCl 4 mM, CaCl2 2 mM, MgCl2 1 mM, HEPES 10 mM, Glucose 10 mM, pH 7.4 (NaOH). The intracellular recording solution contained (in mM): CsF 120 mM, CsCl 20 mM, NaCl 10 mM, EGTA 10 mM, HEPES 10 mM, pH 7.2 (CsOH). Currents were recorded at 25 kHz sampling frequency and filtered at 5 kHz. Series resistance compensation was applied at 65%.
Vehicle (VEH) is the control condition where cells are exposed to 0.3% DMSO without compound. All runs include VEH controls being exposed to the same voltage protocols to assess non-compound related phenomena such as run down and then used to isolate compound dependent effects on currents.
To check for state-dependent inhibition, the following voltage-sequence was applied every 20 seconds:
From a resting membrane potential of −120 mV, the first test pulse (P1; 20 ms to −10 mV) was applied to check for channels in the Resting State followed by a brief recovery (100 ms to −120 mV), then holding the membrane voltage to V1/2 (4 seconds at voltage to obtain half the channel at Rest and half Inactivated) with a subsequent second test pulse (P2; 20 ms to −10 mV) to check for channels in the Inactivated State, followed by another brief recovery (20 ms to −120 mV) and a final third test pulse (P3; 20 ms to −10 mV) to check for recovered channels.
To check for frequency-dependent inhibition, a 10 Hz protocol and a 20 Hz protocol were applied; namely,
From a resting membrane potential of −120 mV, 40-pulses (10 ms to −10 mV) was applied at 10 Hz (at 100 ms between pulses) and then at 20 Hz (at 50 ms between pulses).
Each parameter was recorded (P1, P2, P3, P40 from 10 Hz and P40 from 20 Hz) during a control period (lasting 5 minutes) when establishing the baseline and during compound period (lasting ~12 minutes) when test compound (or vehicle) was applied. For each parameter, the value at the end of the compound period was normalized to the vehicle baseline; as follows
To adjust for any variance in the Na^+ current signal during the compound period (owing to cumulative inactivation independent of compound or shifts in biophysics over time), a dedicated segment of the recording wells in each 384 plate were dedicated to having only vehicle exposure. These vehicle-only recordings were used to correct for any apparent “run-up” or “run-down” in the experiment.
The adjusted inhibition was calculated as follows: […]
Percent inhibition was determined and IC50 values were calculated using a 4 parameter logistic model within XLFit Software (IDBS, Boston MA): F
[formula] where A and B are the maximal and minimum inhibition respectively, C is the IC50 concentration and D is the (Hill) slope.

T1 sequence (Q9Y5Y9 whole entry): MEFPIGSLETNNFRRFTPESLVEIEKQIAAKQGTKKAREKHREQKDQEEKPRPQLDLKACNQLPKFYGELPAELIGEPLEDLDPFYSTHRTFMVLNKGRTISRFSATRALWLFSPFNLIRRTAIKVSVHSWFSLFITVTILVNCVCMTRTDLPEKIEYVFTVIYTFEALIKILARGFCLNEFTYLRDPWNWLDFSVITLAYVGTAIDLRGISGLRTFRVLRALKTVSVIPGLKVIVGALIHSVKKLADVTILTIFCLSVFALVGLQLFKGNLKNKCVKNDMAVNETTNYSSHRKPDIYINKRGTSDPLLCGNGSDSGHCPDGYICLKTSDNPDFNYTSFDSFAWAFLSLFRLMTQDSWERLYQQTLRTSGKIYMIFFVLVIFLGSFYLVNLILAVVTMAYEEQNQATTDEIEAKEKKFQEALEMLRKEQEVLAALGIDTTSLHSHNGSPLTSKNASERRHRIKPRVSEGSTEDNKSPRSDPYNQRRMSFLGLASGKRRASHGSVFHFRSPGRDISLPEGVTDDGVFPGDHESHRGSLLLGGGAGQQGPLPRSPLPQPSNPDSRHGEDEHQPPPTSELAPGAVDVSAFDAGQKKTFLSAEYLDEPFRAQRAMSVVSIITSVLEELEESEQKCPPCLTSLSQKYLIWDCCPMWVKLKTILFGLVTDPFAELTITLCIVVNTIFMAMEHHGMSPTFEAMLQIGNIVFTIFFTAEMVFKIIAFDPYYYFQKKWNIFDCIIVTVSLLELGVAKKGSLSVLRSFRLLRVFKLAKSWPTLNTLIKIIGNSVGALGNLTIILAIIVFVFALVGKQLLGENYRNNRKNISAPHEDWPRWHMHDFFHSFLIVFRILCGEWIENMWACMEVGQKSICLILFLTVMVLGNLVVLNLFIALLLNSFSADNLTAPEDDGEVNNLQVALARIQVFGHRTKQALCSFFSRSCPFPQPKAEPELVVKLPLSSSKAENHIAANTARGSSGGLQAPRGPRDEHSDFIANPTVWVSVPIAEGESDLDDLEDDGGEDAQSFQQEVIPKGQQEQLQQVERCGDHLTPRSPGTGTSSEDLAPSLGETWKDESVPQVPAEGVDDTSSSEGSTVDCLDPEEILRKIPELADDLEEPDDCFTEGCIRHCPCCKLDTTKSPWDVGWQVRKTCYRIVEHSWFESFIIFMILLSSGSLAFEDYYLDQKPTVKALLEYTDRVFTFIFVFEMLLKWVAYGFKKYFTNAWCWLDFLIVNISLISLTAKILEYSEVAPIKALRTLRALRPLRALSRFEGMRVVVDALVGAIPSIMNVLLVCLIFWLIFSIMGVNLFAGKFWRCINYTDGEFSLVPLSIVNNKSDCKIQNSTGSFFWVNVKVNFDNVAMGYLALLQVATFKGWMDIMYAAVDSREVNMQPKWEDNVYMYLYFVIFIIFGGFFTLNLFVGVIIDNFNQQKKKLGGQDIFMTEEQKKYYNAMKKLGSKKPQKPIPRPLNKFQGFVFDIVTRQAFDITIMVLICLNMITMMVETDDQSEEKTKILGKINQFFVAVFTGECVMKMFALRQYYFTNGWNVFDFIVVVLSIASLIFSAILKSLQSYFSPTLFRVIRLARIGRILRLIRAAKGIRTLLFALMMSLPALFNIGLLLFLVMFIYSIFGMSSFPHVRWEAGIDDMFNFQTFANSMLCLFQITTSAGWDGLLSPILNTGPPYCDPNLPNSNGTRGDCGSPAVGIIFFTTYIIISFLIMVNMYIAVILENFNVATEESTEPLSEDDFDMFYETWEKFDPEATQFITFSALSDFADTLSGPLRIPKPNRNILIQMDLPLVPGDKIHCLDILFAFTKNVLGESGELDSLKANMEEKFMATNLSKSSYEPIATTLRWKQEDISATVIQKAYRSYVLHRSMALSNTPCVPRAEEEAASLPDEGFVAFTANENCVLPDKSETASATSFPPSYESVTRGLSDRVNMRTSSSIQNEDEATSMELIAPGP

| SMILES | IC50 [nM] |
| --- | --- |
| C[C@@H]1C[C@H]1c1nn(CC2(C)CC(F)(F)C2)c(C(=O)Nc2ccnc([S@@](C)(=N)=O)c2)c1C(F)(F)F (single isomer, unassigned) [Example 65d, 1-((3,3-Difluoro-1-methylcyclobutyl)methyl)-3-((trans)-2-methylcyclopropyl)-N-(2-(S-methylsulfonimidoyl)pyridin-4-yl)-4-(trifluoromethyl)-1H-pyrazole-5-carboxamide] | ≤ 100 |
| CC1(Cn2nc(C3CCC3)c(C(F)(F)F)c2C(=O)Nc2ccnc(S(C)(=N)=O)c2)CC(F)(F)C1 (single isomer, unassigned) [Example 56a, 3-cyclobutyl-1-((3,3-difluoro-1-methylcyclobutyl)methyl)-N-(2-(S-methylsulfonimidoyl)pyridin-4-yl)-4-(trifluoromethyl)-1H-pyrazole-5-carboxamide] | ≤ 100 |
| CS(=N)(=O)c1cc(NC(=O)c2c(C(F)(F)F)c(C3CC3)nn2CC23CC(CC2(F)F)C3)ccn1 (single isomer, unassigned) [Example 103b, 3-cyclopropyl-1-((2,2-difluorobicyclo[2.1.1]hexan-1-yl)methyl)-N-(2-(S-methylsulfonimidoyl)pyridin-4-yl)-4-(trifluoromethyl)-1H-pyrazole-5-carboxamide] | ≤ 100 |
| C[S@@](=N)(=O)c1cccc(NC(=O)c2c(C(F)(F)F)c(C3(F)CC3)nn2CC2C[C@H]2C(F)(F)F)c1 (single isomer, unassigned) [Example 134c, 3-(1-Fluorocyclopropyl)-N-(3-(S-methylsulfonimidoyl)phenyl)-4-(trifluoromethyl)-1-(((trans)-2-(trifluoromethyl)cyclopropyl)methyl)-1H-pyrazole-5-carboxamide] | ≤ 100 |
| CCS(=N)(=O)c1cc(NC(=O)c2c(C(F)(F)F)c(C3CC3)nn2CC2(C)CC(F)(F)C2)ccn1 (single isomer, unassigned) [Example 48b, 3-cyclopropyl-1-((3,3-difluoro-1-methylcyclobutyl)methyl)-N-(2-(ethylsulfonimidoyl)pyridin-4-yl)-4-(trifluoromethyl)-1H-pyrazole-5-carboxamide] | ≤ 100 |
| C[C@]1(Cn2nc(C3CC3)c(C(F)(F)F)c2C(=O)Nc2ccnc([S@](C)(=N)=O)c2)CC(F)(F)C12CC2 (single isomer, unassigned) [Example 92a, 3-cyclopropyl-1-((6,6-difluoro-4-methylspiro[2.3]hexan-4-yl)methyl)-N-(2-(S-methylsulfonimidoyl)pyridin-4-yl)-4-(trifluoromethyl)-1H-pyrazole-5-carboxamide] | ≤ 100 |
| CS(=N)(=O)c1cc(NC(=O)c2c(C(F)(F)F)c(C3CC3)nn2CC23CCC(F)(CC2)C3)ccn1 (single isomer, unassigned) [Example 106a, 3-cyclopropyl-1-((4-fluorobicyclo[2.2.1]heptan-1-yl)methyl)-N-(2-(S-methylsulfonimidoyl)pyridin-4-yl)-4-(trifluoromethyl)-1H-pyrazole-5-carboxamide] | ≤ 100 |
| CC1(Cn2nc(C3(F)CC3)c(C(F)(F)F)c2C(=O)Nc2cc(F)cc(S(C)(=N)=O)c2)CC(F)(F)C1 (single isomer, unassigned) [Example 127b, 1-((3,3-Difluoro-1-methylcyclobutyl)methyl)-N-(3-fluoro-5-(S-methylsulfonimidoyl)phenyl)-3-(1-fluorocyclopropyl)-4-(trifluoromethyl)-1H-pyrazole-5-carboxamide] | ≤ 100 |
| C[S@@](=N)(=O)c1cc(NC(=O)c2c(C(F)(F)F)c(C3CC3)nn2C[C@H]2C(F)(F)C23CC3)ccn1 (single isomer, unassigned) [Example 79a, 3-cyclopropyl-1-((2,2-difluorospiro[2.2]pentan-1-yl)methyl)-N-(2-(S-methylsulfonimidoyl)pyridin-4-yl)-4-(trifluoromethyl)-1H-pyrazole-5-carboxamide] | ≤ 100 |
| CC1(Cn2nc(C3CC3(F)F)c(C(F)(F)F)c2C(=O)Nc2ccnc(S(C)(=N)=O)c2)CC(F)(F)C1 (single isomer, unassigned) [Example 63b, 1-((3,3-Difluoro-1-methylcyclobutyl)methyl)-3-(2,2-difluorocyclopropyl)-N-(2-(S-methylsulfonimidoyl)pyridin-4-yl)-4-(trifluoromethyl)-1H-pyrazole-5-carboxamide] | ≤ 100 |
| C[S@@](=N)(=O)c1cccc(NC(=O)c2c(C(F)(F)F)c(C3(F)CC3)nn2CC2C[C@@H]2C(F)(F)F)c1 (single isomer, unassigned) [Example 134a, 3-(1-Fluorocyclopropyl)-N-(3-(S-methylsulfonimidoyl)phenyl)-4-(trifluoromethyl)-1-(((trans)-2-(trifluoromethyl)cyclopropyl)methyl)-1H-pyrazole-5-carboxamide] | ≤ 100 |

Other lines, results leading:

| IC50 [nM] | SMILES |
| --- | --- |
| ≤ 100 | CC1(Cn2nc(C(C)(C)F)c(C(F)(F)F)c2C(=O)Nc2ccnc(S(C)(=N)=O)c2)CC(F)(F)C1 (single isomer, unassigned) [Example 148b, 1-((3,3-Difluoro-1-methylcyclobutyl)methyl)-3-(2-fluoropropan-2-yl)-N-(2-(S-methylsulfonimidoyl)pyridin-4-yl)-4-(trifluoromethyl)-1H-pyrazole-5-carboxamide] |
| ≤ 100 | Cc1c(C(C)(F)F)nn(CC23CC(C(F)(F)F)(C2)C3)c1C(=O)Nc1ccnc(S(C)(=N)=O)c1 (single isomer, unassigned) [Example 15b, 3-(1,1-difluoroethyl)-4-methyl-N-(2-(S-methylsulfonimidoyl)pyridin-4-yl)-1-((3-(trifluoromethyl)bicyclo[1.1.1]pentan-1-yl)methyl)-1H-pyrazole-5-carboxamide] |
| ≤ 100 | Cc1c(C(C)(F)F)nn(CC2CCC(F)(F)CC2)c1C(=O)Nc1ccnc(S(C)(=N)=O)c1 (single isomer, unassigned) [Example 9a, 1-((4,4-difluorocyclohexyl)methyl)-3-(1,1-difluoroethyl)-4-methyl-N-(2-(S-methylsulfonimidoyl)pyridin-4-yl)-1H-pyrazole-5-carboxamide] |
| ≤ 100 | CN=S(C)(=O)c1cc(NC(=O)c2c(C)c(C(C)(F)F)nn2CC2(C)CC(F)(F)C2)ccn1 (single isomer, unassigned) [Example 34b, 1-((3,3-Difluoro-1-methylcyclobutyl)methyl)-3-(1,1-difluoroethyl)-N-(2-(N,S-dimethylsulfonimidoyl)pyridin-4-yl)-4-methyl-1H-pyrazole-5-carboxamide] |
| ≤ 100 | Cc1c(C(C)(F)F)nn(CC23CC(C(F)(F)F)(C2)C3)c1C(=O)Nc1ccnc(S(C)(=N)=O)c1 (single isomer, unassigned) [Example 15a, 3-(1,1-difluoroethyl)-4-methyl-N-(2-(S-methylsulfonimidoyl)pyridin-4-yl)-1-((3-(trifluoromethyl)bicyclo[1.1.1]pentan-1-yl)methyl)-1H-pyrazole-5-carboxamide] |
| ≤ 100 | Cc1c(C(C)(F)F)nn(CC2CCC(F)(F)C2)c1C(=O)Nc1ccnc(S(C)(=N)=O)c1 (centres unmarked) [Example 4, 1-((3,3-Difluorocyclopentyl)methyl)-3-(1,1-difluoroethyl)-4-methyl-N-(2-(S-methylsulfonimidoyl)pyridin-4-yl)-1H-pyrazole-5-carboxamide] |
